“And” between values parts separate entries of the source, which are not always exact repeats. Equal entries are not always repeated.

For orientation: melting point means the temperature, or range, at which the solid turns liquid.

`Cc1cc(/C=C2\SC(=Nc3ccccc3)N=C2O)c(C)n1-c1ccc(F)cc1` [OSM-S-10]: the melting point is 278 °C.

`CC[C@H]1OC(=O)[C@H](C)[C@@H](O[C@H]2C[C@@](C)(OC)[C@@H](O)[C@H](C)O2)[C@H](C)[C@@H](O[C@@H]2O[C@H](C)C[C@H](N(C)C)[C@H]2O)[C@](C)(O)C[C@@H](C)CN(C)[C@H](C)[C@@H](O)[C@]1(C)O` gave a melting point of 114 °C.

In the case of `O=Cc1ccccc1` [Benzaldehyde], the melting point was -56 °C.

In turn, `c1ccc2c(c1)Cc1ccccc1-2` [9H-Fluorene] returned a melting point of 116 °C.

Turning to `O=C(O)[C@@H]1C[C@@H]2C[C@H]1[C@@H](O)C2`, the melting point worked out at 161 °C.

`CCOC(=O)CSCCC1NC(C(=O)O)CS1` (stereo unspecified) [letosteine] registered a melting point of 142 °C.

For the compound `CC(=O)Nc1nccs1` [2-acetamidothiazole], the melting point turned out to be 203 °C.

In turn, `CCC1OC(=O)C(C)C(OC2CC(C)(OC)C(O)C(C)O2)C(C)C(OC2OC(C)CC(N(C)C)C2O)C(C)(O)CC(C)C(=O)C(C)C(O)C1(C)O` (stereo unspecified) [erythromycin] showed a melting point of 135 °C.

The compound `CC(C)COC(=O)C(C)C` [isobutyl_isobutyrate] displayed a melting point of -80 °C.

`CC1(C)OC(CP(c2ccccc2)c2ccccc2)C(CP(c2ccccc2)c2ccccc2)O1` (stereo unspecified): the melting point was 87 °C.

`c1ccc(Cc2ccc(-c3ccccc3)cc2)cc1` [4-benzylbiphenyl] gave a melting point of 86 °C.

With `Clc1ccc(COC(Cn2ccnc2)c2ccc(Cl)cc2Cl)cc1` (stereo unspecified) [Ecostatin], the melting point is 87 °C.

The compound `O=C(CO)[C@H](O)[C@@H](O)[C@H](O)CO` [D-sorbose] gave a melting point of 164 °C.

For the compound `CCCCCCCCI` [1-iodooctane], the melting point was -44 °C.

`Nc1ccc([N+](=O)[O-])cc1` [4-nitroaniline] displayed a melting point of 148 °C.

Compound `Cc1ccc([N+](=O)[O-])cc1C` [4-nitro-1,2-dimethylbenzene] came in with a melting point of 31 °C.

In turn, `CCCC[C@@H](NC(=O)OCc1ccccc1)C(=O)O` [N-benzyloxycarbonyl-D-norleucine] showed a melting point of 57 °C.

As to `CCOC(=O)c1ccc(N=C=O)cc1` [4-(ethoxycarbonyl)phenyl isocyanate], the melting point was found to be 30 °C.

The compound `COc1ccc(C(=O)O)cc1OC` [3,4-Dimethoxybenzoic acid] had a melting point of 181 °C.

As for `CCCCCCC(O)CO` (stereo unspecified) [1,2-octanediol], the melting point is 31 °C.

Consider `O=Cc1cnc2ccccc2c1` [quinoline-3-carboxaldehyde], for which the melting point came to 70 °C.

As to `O=C(O)/C=C/c1cccc(OC(F)(F)F)c1` [3-(trifluoromethoxy)cinnamic acid], the melting point was 94 °C.

The compound `C[C@]12CCC(=O)C[C@H]1CC[C@@H]1[C@@H]2CC[C@]2(C)C(=O)CC[C@@H]12` [(5beta)-Androstane-3,17-dione] gave a melting point of 147 °C.

On to `COc1ccc(C(=O)/C=C/c2ccc(-c3ccccc3[N+](=O)[O-])o2)cc1OC`, for which the melting point was determined as 120 °C.

With `Cc1cccc(B(O)O)c1` [3-methylbenzeneboronic acid], the melting point amounted to 161 °C.

Consider `Cc1ccn(C(N)=O)n1` [1-carbamoyl-3-methylpyrazole], for which the melting point came to 148 °C.

The compound `COc1ccccc1CC#N` [2-methoxyphenylacetonitrile] yielded a melting point of 68 °C.

As to `Cc1cc(C)n(C)n1` [1,3,5-trimethyl-1h-pyrazole], the melting point is 36 °C.

The compound `OCc1ccco1` [furfuryl alcohol] displayed a melting point of -31 °C.

In turn, `Nc1ccccc1NNc1ccccc1` [2-(2-phenylhydrazino)aniline] had a melting point of 107 °C.

`O=[N+]([O-])c1cc([N+](=O)[O-])c(F)cc1F` [1,5-difluoro-2,4-dinitrobenzene] gave a melting point of 74 °C.

In turn, `OB(O)c1ccc(C(F)(F)F)cc1Cl` [2-chloro-4-(trifluoromethyl)benzeneboronic acid] returned a melting point of 111 °C.

The compound `Cc1ccc([N+](=O)[O-])c(C)c1` [2,4-Dimethyl-1-nitrobenzene] came in with a melting point of 7 °C.

Turning to `O=C(OCc1ccccc1)c1ccc(B(O)O)cc1` [4-(benzyloxycarbonyl)benzeneboronic acid], the melting point is 190 °C.

`COc1ccc(CC#N)c(Cl)c1` [2-chloro-4-methoxyphenylacetonitrile]: the melting point amounted to 42 °C.

For `O=C(O)c1ccccc1Br` [2-Bromobenzoic acid], the melting point was found to be 149 °C.

`c1ccc(N=Nc2ccc(Nc3ccccc3)cc2)cc1` [4-phenylazodiphenylamine] yielded a melting point of 83 °C.

As to `O=C(O)c1cc(O)ccc1O` [2,5-dihydroxybenzoic acid], the melting point was 200 °C and 205 °C.

On to `COc1ccc(C(=O)O)cc1OCc1ccccc1` [3-benzyloxy-4-methoxybenzoic acid], for which the melting point amounted to 180 °C.

`Cc1ccc(-c2ccccc2)s1` [2-methyl-5-phenylthiophene] displayed a melting point of 48 °C.

`COc1cc(Cl)ccc1C(=O)O` [4-chloro-2-methoxybenzoic acid] had a melting point of 147 °C.

`COc1ccc2c(c1)[nH]c1c(C)nccc12` [harmine] returned a melting point of 264 °C.

Compound `CCCCCCCCCCCCCCCCCCCC` [Icosane] had a melting point of 36.7 °C.

Compound `Nc1cc(F)c(F)cc1C(=O)O` [2-amino-4,5-difluorobenzoic acid] had a melting point of 182 °C.

With `C=Cc1cccc([N+](=O)[O-])c1` [3-nitrostyrene], the melting point was -5 °C.

Compound `CN(C)CCOc1ccc(/C(=C(\CCCl)c2ccccc2)c2ccccc2)cc1` displayed a melting point of 108 °C.

On to `CCOC(=O)c1ccc(N)cc1` [benzocaine], for which the melting point is 92 °C.

For `C=CCc1ccccc1O` [2-allylphenol], the melting point was -6 °C.

`CCC(Br)(CC)C(=O)NC(=O)NC(C)=O` [acecarbromal]: the melting point was determined as 109 °C.

Consider `C/C=C/C1Nn2c(nnc2-c2ccccc2OC)S1` (stereo unspecified), for which the melting point turned out to be 125 °C.

The compound `O=C(Cl)CCCCl` [4-chlorobutyryl chloride] returned a melting point of -49 °C.

Regarding `OCc1ccc(O)cc1` [4-hydroxybenzyl_alcohol], the melting point worked out at 112 °C.

In the case of `N[C@@H](Cc1ccc(O)c(O)c1)C(=O)O` [Levodopa], the melting point amounted to 277 °C.

Turning to `CC(C)(C)I` [2-iodo-2-methylpropane], the melting point was -38 °C.

The compound `Oc1c(Br)cc(Br)c2cccnc12` [5,7-dibromo-8-hydroxyquinoline] came in with a melting point of 201 °C.

Compound `CCCCCCS(=O)(=O)CC#N` [N-hexylsulfonylacetonitrile] had a melting point of 42 °C.

The compound `O=C(O)c1ccccc1O` [Salicylic acid] registered a melting point of 161 °C.

In turn, `CNc1ccccc1` [N-Methylaniline] returned a melting point of -57 °C.

`CC(=O)N(C1=NC(=O)/C(=C/c2cc(C)n(-c3ccc(C)cc3)c2C)S1)c1ccccc1` [OSM-S-50] registered a melting point of 257 °C.

Compound `ClC(c1ccccc1)c1ccccc1` [benzhydryl chloride] displayed a melting point of 19 °C.

For the compound `COc1ccccc1N` [o-anisidine], the melting point was found to be 6 °C.

In the case of `Cc1ccccc1CNC(=S)Nc1ccccc1` [1-(2-methylbenzyl)-3-phenylthiourea], the melting point came out at 163 °C.

In turn, `NS(=O)(=O)c1cc(C(=O)O)c(NCc2ccco2)cc1Cl` [Furosemide] returned a melting point of 206 °C.

The compound `COC(=O)C(C#N)c1ccccc1[N+](=O)[O-]` (stereo unspecified) [methyl cyano(2-nitrophenyl)acetate] displayed a melting point of 88 °C.

The compound `CC(=O)Oc1ccc([N+](=O)[O-])cc1` [p-nitrophenyl_acetate] returned a melting point of 78 °C.

In turn, `N#Cc1ccc(O)cc1` [4-hydroxybenzonitrile] returned a melting point of 112 °C.

On to `CC(C)CCOC(=O)/C=C/c1ccc(/C=C/C(=O)OCCC(C)C)c([N+](=O)[O-])c1`, for which the melting point was determined as 94 °C.

On to `O=C(O)c1ccco1` [furoic acid], for which the melting point was found to be 134 °C.

Turning to `CCOC(C)=NOc1ccc([N+](=O)[O-])cc1[N+](=O)[O-]` [ethyl n-(2,4-dinitrophenoxy)acetimidate], the melting point came out at 112 °C.

In turn, `O=S(=O)(O)O` [Sulfuric acid] registered a melting point of -2 °C.

As for `CC/C(=C(/CC)c1ccc(O)cc1)c1ccc(O)cc1` [diethylstilbestrol], the melting point stood at 178 °C.

Compound `CCCCCCCCCCSc1cc(N(NC(=O)OC(C)(C)C)C(=O)OC(C)(C)C)cc(SCCCCCCCCCC)c1SCCCCCCCCCC` gave a melting point of 50.5 °C.

Regarding `[O-]/[N+](=N\c1ccccc1)c1ccc(/N=N/c2ccc(/[N+]([O-])=N/c3ccccc3)cc2)cc1` [(E)-bis{4-[(Z)-phenyl-NNO-azoxy]phenyl}diazene], the melting point was 139 °C.

`O=C(Cl)c1cncc(Br)c1` [5-bromonicotinoyl chloride] displayed a melting point of 73 °C.

In turn, `CC(=O)Nc1ccc([N+](=O)[O-])cn1` [2-acetamido-5-nitropyridine] gave a melting point of 200 °C.

For the compound `C=CC(=O)OCC(CC)CCCC` (stereo unspecified) [2-ethylhexyl acrylate], the melting point was -90 °C.

`COc1cc(Cl)cc(B(O)O)c1` [3-chloro-5-methoxybenzeneboronic acid] returned a melting point of 187 °C.

For `CCOC(=O)c1ccc2c(c1)no[n+]2[O-]` [ethyl benzofuroxan-5-carboxylate], the melting point stood at 67 °C.

The compound `Nc1nc(=O)c2ncn(COCCO)c2[nH]1` [Aciclovir] gave a melting point of 257 °C.

In turn, `O=C(NC(C(=O)O)c1ccccc1)OCC(Cl)(Cl)Cl` (stereo unspecified) [Phenyl{[(2,2,2-trichloroethoxy)carbonyl]amino}acetic acid] yielded a melting point of 142 °C.

As for `CC(C)(C)CCl` [neopentyl chloride], the melting point was -20 °C.

As to `COc1ccccc1N/N=C1\C(=O)N(CN2CCCCC2)N=C1C`, the melting point was determined as 149 °C.

`Cc1cccc(C(N)=O)c1` [m-toluamide] had a melting point of 96 °C.

Turning to `CCCCCCCC` [octane], the melting point was -57 °C and -56.8 °C.

For the compound `O=C(O)c1sc2ccccc2c1Cl` [3-chlorobenzo[b]thiophene-2-carboxylic acid], the melting point worked out at 266 °C.

`ClC1C(Cl)C(Cl)C(Cl)C(Cl)C1Cl` (stereo not drawn) [alpha-hexachlorocyclohexane] returned a melting point of 160 °C.

Source of the values: the Bradley open melting point set (2014).
